Patent US20170275371A1, “Methods Of Treatment” (GlaxoSmithKline Intellectual Property Development Limited, priority 2015, published 2017)
Where “and” joins values, the source holds several entries; their conditions need not be identical. Equal entries are not always repeated. Entries after “also recorded” stand apart in the source; their conditions may differ.

Assays:
[1] = tested on: CT-26 colon carcinoma tumors; assay: CT-26 syngeneic mouse model of colon cancer, i.p. dosing (Examples 1-4); format: in vivo; details: for tumor growth inhibition over time: TLR4 agonist 4, 20, 100 ug per mouse i.p. biweekly, vs vehicle (2% glycerol); for survivability: TLR4 agonist i.p. biweekly, vs vehicle
[2] = tested on: CT-26 tumor cells; assay: CT-26 tumor re-challenge of tumor-free mice (Studies 6 and 7); format: in vivo, mouse; details: vs naive control mice
Procedure: The in vivo anti-tumor efficacy of the TLR4 agonist (CRX601) was assessed in the murine CT-26 colon carcinoma syngeneic solid tumor model as a monotherapy and in combination with a rate anti-mouse OX40 antibody clone OX86. Seven to eight week old female Balb/c mice (BALB/cAnNCrl, Charles River) were used in these studies. Murine CT-26 colon carcinoma cells (ATCC catalog number CRL-2638 lot#59227052) were cultured in RPMI growth medium supplemented with 10% fetal bovine serum (FBS) in a humidified 37° C. incubator with 5% CO2. CT-26 cells cultured in logarithmic growth were harvested from tissue culture flasks and centrifuged for 5 minutes at 450×g at 4° C. for ten minutes to pellet cells. The supernatant was discarded, and cells were washed in ice cold phosphate buffered saline (PBS) without calcium and magnesium and centrifuged again for 5 minutes at 450×g at 4° C. for ten minutes to pellet cells. The cells were resuspended in sterile RPMI media without FBS and adjusted to a cell concentration of 500,000 cells/ml. […] Tumor volume was calculated using the formula (0.52)×(Length)×(Width^2). In studies 6 and 7, tumor-free mice were re-challenged with CT-26 tumor cells as described above, on the opposite flank from the original inoculation site and tumor growth was monitored, as described above. […]

[3] = tested on: CT-26 colon carcinoma tumors; assay: In vivo anti-tumor efficacy in murine CT-26 colon carcinoma syngeneic solid tumor model (Example 5, Studies 1-4, 6, 7): tumor growth and survival; design: species or system mouse; details: for tumor growth inhibition vs control Group 5: 12 days
Procedure: The in vivo anti-tumor efficacy of the TLR4 agonist (CRX601) was assessed in the murine CT-26 colon carcinoma syngeneic solid tumor model as a monotherapy and in combination with a rate anti-mouse OX40 antibody clone OX86. Seven to eight week old female Balb/c mice (BALB/cAnNCrl, Charles River) were used in these studies. Murine CT-26 colon carcinoma cells (ATCC catalog number CRL-2638 lot#59227052) were cultured in RPMI growth medium supplemented with 10% fetal bovine serum (FBS) in a humidified 37° C. incubator with 5% CO2. CT-26 cells cultured in logarithmic growth were harvested from tissue culture flasks and centrifuged for 5 minutes at 450×g at 4° C. […] to pellet cells. The supernatant was discarded, and cells were washed in ice cold phosphate buffered saline (PBS) without calcium and magnesium and centrifuged again for 5 minutes at 450×g at 4° C. […] to pellet cells. The cells were resuspended in sterile RPMI media without FBS and adjusted to a cell concentration of 500,000 cells/ml. 100 μl of the cell stock was implanted via subcutaneous injection into the right flank of each Balb/c mouse. After ten or eleven days when the average tumor size reached approximately 100 mm^3, mice were randomized into study cohorts according to tumor size and the first treatment dose was given. The TLR4 agonist (CRX601) or vehicle was dosed via a systemic intravenous or direct intratumoral injection as indicated. The CRX-601 vehicle used for intravenous and intratumoral dosing was […] where indicated. For CRX-601 liposomal intratumoral dosing, a DOPC/CHOL liposome prepared by GSK Lot #1783-157-B was used. The rat anti-mouse OX40 receptor antibody (clone OX86) (expressed and purified in-house from the rat hybridoma Grits ID 50776, BP232 2013) or Rat IgG1 isotype control antibody (BioXCell catalog # BE0088) was dosed via an intraperitoneal injection given twice per week for a total of six doses. Caliper measurements were taken three times per week to assess tumor growth, and mice with tumors <2,000 mm^3 were maintained on study from 30 up to approximately 115 days. Mice with tumors >2,000 mm^3 for 2 consecutive measurements or mice with tumors which formed open ulcers were removed from the study. Tumor volume was calculated using the formula (0.52)×(Length)×(Width^2). In studies 6 and 7, tumor-free mice were re-challenged with CT-26 tumor cells as described above, on the opposite flank from the original inoculation site and tumor growth was monitored, as described above. All studies were conducted in accordance with the GSK Policy on the Care, Welfare and Treatment of Laboratory Animals and were reviewed by the Institutional Animal Care and Use Committee at GSK.
For studies 1-4, to determine significance of tumor growth inhibition, tumor volumes at 11 (study 1), 15 (studies 2 and 3), or 19 (study 4) days after first dose were compared between the different treatment groups. Prior to the analysis, tumor volumes were natural log transformed due to the inequality of variance in the different treatment groups. ANOVA followed by pair-wise comparison was then carried out on the log transformed data. SAS 9.3 and R 3.0.2 analysis software was used. Kaplan-Meier (KM) method was carried out to estimate the survival probability of different treatment groups at a given time. The event for survival analysis was tumor volume of 2000 mm^3 or tumor ulceration, whichever came first. The exact time to cut-off volume was estimated by fitting a linear line between log tumor volume and day of two observations, the first observation that exceed the cut-off volume and the one observation that immediately preceded the cut-off volume. The median time to endpoint and its corresponding 95% confidence interval was calculated. Whether or not KM survival curves were statistically different between any two groups was then tested by log-rank test. […]

[4] = tested on: TNF alpha and IL-12p70; assay: Multiplex cytokine analysis of plasma from CT-26 mice (Study 5); format: in vivo, mouse; details: CRX-601 10 ug, OX-86, or both
Procedure: Tumors, blood and tissues were harvested from CT-26 mice on day 0, day 1 and day 8 after first CRX-601 dosing. Mouse white blood cells and dissociated tumor single cells were stained freshly with surface or intracellular staining antibodies for multicolor flow cytometry analysis for immunephenotyping. Multiplex cytokine analysis was performed using mouse plasma samples from the same study.
Results are the mean of five animals per cohort.

[5] = tested on: OX40 expression on human PBMCs; assay: In vitro human PBMC assay, OX40 expression by flow cytometry; format: cell-based; details: 24 hours, 0.01 μg/ml-1,000 μg/ml
Procedure: In vitro human peripheral blood mononuclear cell (PBMC) assay was performed to assess the effect of CRX601 on OX40 expression. Freshly isolated human PBMCs were checked for viability and were cultured in AIM-V serum free media at a density of two million cells per well in a 24-well non tissue culture treated plate. PBMCs were stimulated with a dose concentration (0.01 μg/ml-1,000 μg/ml, including a vehicle blank) of CRX-601 for 24 hours. By the end of incubation, cells were collected for flow cytometry assessment of OX40 expression.

[6] = Study 1, 50 ug intratumoral, day 42
[7] = Study 2, 100 ug intravenous, day 32

Structure (SMILES): CCCCCCCCCCC[C@H](CC(=O)N[C@H]1[C@H](OC[C@H](NC(=O)C[C@@H](CCCCCCCCCCC)OC(=O)CCCCCCCCC)C(=O)O)O[C@H](CO)[C@@H](OP(=O)(O)O)[C@@H]1OC(=O)C[C@@H](CCCCCCCCCCC)OC(=O)CCCCCCCCC)OC(=O)CCCCCCCCC [CRX-527]
- tumor growth inhibition over time [1]: inhibited tumor growth in a dose-dependent manner; also recorded: dose-dependent anti-tumor activity
- survivability [1]: Dose dependence was also seen in the survivability

Structure (SMILES): CCCCCCCCCCC[C@H](CC(=O)N[C@H]1[C@H](OC[C@H](NC(=O)C[C@@H](CCCCCCCCCCC)OCCCCCCCCCC)C(=O)O)O[C@H](CO)[C@@H](OP(=O)(O)O)[C@@H]1OC(=O)C[C@@H](CCCCCCCCCCC)OCCCCCCCCCC)OCCCCCCCCCC [CRX-601]
- tumor growth after CT26 re-challenge of tumor-free mice ([2]; Study 6, re-challenge on day 68): persistent anti-tumor memory immunity
- tumor growth after CT26 re-challenge of tumor-free mice ([2]; Study 7, re-challenge on day 80): persistent anti-tumor memory
- tumor growth inhibition over time [1]: inhibited tumor growth in a dose-dependent manner; also recorded: dose-dependent anti-tumor activity
- survivability [1]: Dose dependence was also seen in the survivability
- tumor-free mice among mice remaining on study ([3]; Study 1, 10 ug intratumoral, day 42): single mouse remaining in the 10 μg group was tumor-free
- tumor growth inhibition vs vehicle ([3]; Study 1, 10 ug/mouse intratumoral twice per week x6, 11 days after initial dose): statistically significant
- tumor volume of remaining mouse not tumor-free [3, 6]: 854.19 mm^3
- tumor-free mice among mice remaining on study [3, 6]: Three of the four
- increase in survival vs vehicle ([3]; Study 1, 50 ug intratumoral, day 42 post tumor cell inoculation): statistically significant
- tumor growth inhibition vs vehicle ([3]; Study 1, 50 ug/mouse intratumoral single dose, 11 days after initial dose): statistically significant
- anti-tumor activity (tumor growth inhibition over time) ([3]; Study 1, intratumoral 0.1, 1, 10 ug twice per week x6 or 50 ug single dose): dose-dependent anti-tumor activity
- tumor volume of single remaining mouse ([3]; Study 2, 10 ug intravenous, day 32): 188.0 mm^3
- tumor growth inhibition vs vehicle ([3]; Study 2, 10 ug/mouse intravenous twice per week x6, 15 days after initial dose): statistically significant
- tumor volumes of remaining mice not tumor-free [3, 7]: 1500.49 mm^3 and 962.61 mm^3
- tumor-free mice among mice remaining on study [3, 7]: One of the three
- increase in survival vs vehicle ([3]; Study 2, 100 ug intravenous, day 32 post tumor cell inoculation): statistically significant increase
- tumor growth inhibition vs vehicle ([3]; Study 2, 100 ug/mouse intravenous single dose, 15 days after initial dose): statistically significant
- anti-tumor activity (tumor growth inhibition over time) ([3]; Study 2, intravenous 1, 10 ug twice per week x6 or 100 ug single dose): dose-dependent anti-tumor activity
- tumor growth inhibition vs vehicle ([3]; Study 3, CRX-601 10 ug/mouse iv once per week x3, alone, 15 days after first dose): did not show statistically significant tumor growth inhibition
- tumor growth inhibition vs vehicle ([3]; Study 3, CRX-601 25 ug/mouse iv once per week x3, alone, 15 days after first dose): did not show statistically significant tumor growth inhibition
- anti-tumor activity (tumor volume over time) ([3]; Study 4, OX-86 25 ug/mouse twice per week x6, CRX-601 25 ug/mouse iv 1x/week x3, alone or combined): Anti-tumor activity was observed
- mice remaining tumor-free at study end ([3]; Study 4, day 111, 25 ug/mouse each agent, monotherapy arms with Rat IgG1 or vehicle, groups of 10): two
- tumor growth inhibition vs control Group 5 ([3]; Study 6, CRX-601 25 ug intratumoral 1x/week x3 + Rat IgG1 (Group 6), 0.5% glycerol/4% dextrose): did not show statistically significant tumor growth inhibition
- tumor growth inhibition vs control Group 1 ([3]; Study 6, CRX-601 25 ug iv 1x/week x3 + Rat IgG1 (Group 2), 0.5% glycerol/4% dextrose, 12 days after first dose): did not show statistically significant tumor growth inhibition
- mice showing full tumor regressions ([3]; Study 7, CRX601 25 ug IV alone (Group 2) or with OX86 IP (Group 4), day 80): 5 out of 10
- increase in survival vs control Group 1 ([3]; Study 7, CRX601 monotherapy IV (Group 2), 80 days after first dose): statistically significant
- increase in survival vs control Group 5 ([3]; Study 7, CRX601 monotherapy intratumoral, DOPC/CHOL liposome formulation (Group 7), 80 days): statistically significant
- tumor growth inhibition vs control Group 5 ([3]; Study 7, CRX-601 25 ug intratumoral, DOPC/CHOL liposomal formulation + Rat IgG1 (Group 7)): statistically significant
- tumor growth inhibition vs control Group 1 ([3]; Study 7, CRX-601 25 ug iv (0.5% Glycerol/4% dextrose) + Rat IgG1 (Group 2), 12 days after initial dose): statistically significant
- mice fully regressed and tumor-free ([3]; Study 7, intratumoral liposomal arms: Group 8 combination, Group 6 OX86, Group 7 CRX601, day 80, groups of 10): 2 mice
- TNF alpha ([4]; 1 and 8 days post dosing): increase
- IL-12p70 ([4]; only detectable at 8 days post dosing): increase
- OX40 expression on dendritic cells [5]: quick upregulation of OX40 receptor expression
- OX40 expression on human CD4+ T cells [5]: quick upregulation of OX40 receptor expression
- OX40 expression on monocytes [5]: quick upregulation of OX40 receptor expression
